Results as given in publication PMC12473689, “Drug Metabolism and Pharmacokinetics of Oxazolo[4,5-c]quinoline Analogs as Novel Interleukin-33 Inhibitors” (Pharmaceutics, 2025).
Where two headings read alike, the source gives them in different places.

Experiment: Pharmacokinetic study after single IV and PO dose
Type: in vivo
Conditions: male ICR mice; for bioavailability: oral, 10 mg/kg; for half-life: noncompartmental analysis
Description: All animal procedures were reviewed and approved by the Institutional Animal Care and Use Committee (IACUC) of Korea University (Approval No: KUIACUC-2020-0031) and conducted in compliance with the IACUC guidelines. […] In accordance with an approved protocol, mice were euthanized by CO2 asphyxiation at the end of the study. For intravenous (IV) administration, KB-1517 was dissolved in a vehicle of dimethylacetamide/Tween 80/water (5/5/90, v/v/v) at 1 mg/mL. KB-1518 (as TFA salt) was dissolved in DMSO/saline (10/90, v/v) at 1 mg/mL. Mice (n = 4 per group per compound) received a single IV dose of 5 mg/kg via the tail vein (dose volume: 5 mL/kg). For oral (PO) administration, the same formulations were used, and mice (n = 4 per group per compound) received a single dose of 10 mg/kg via oral gavage (dose volume: 10 mL/kg). For intraperitoneal (IP) administration, a suspension of KB-1517 or KB-1518 (0.4 mg/mL in PBS) was prepared by diluting a DMSO stock solution (13 mg/mL). Mice (n = 4 per compound) received a single IP injection of 0.2 mg per animal (dose volume: 500 µL). Serial blood samples (approximately 40 µL) were collected via the saphenous vein into Microvette® 100LH heparinized capillary tubes at selected time points. […] Plasma samples were stored in freezer until LC-MS/MS analysis. Protein precipitation was performed on 15 µL aliquots of plasma samples by adding three volumes of acetonitrile containing diclofenac as an analytical internal standard. The mixture was vortexed thoroughly and centrifuged at 3000× g for 30 min at 4 °C. A 50 µL aliquot of the resulting supernatant was transferred to a 96-well plate and mixed with 50 µL of water. The prepared solutions were analyzed using an Agilent 6460 QQQ LC-MS/MS system (Agilent Technologies Korea Ltd., Seoul, Republic of Korea). Quantitative analysis was performed using an Agilent 1290 Infinity Series HPLC system (Agilent Technologies Korea Ltd., Seoul, Republic of Korea) coupled to an Agilent 6460 QQQ mass spectrometer system (Agilent Technologies Korea Ltd., Seoul, Republic of Korea) with a dual AJS ESI ion source operating in positive ion mode. For chromatographic separation, an Agilent Eclipse Plus C18 column (2.1 × 100 mm, 3.5 µm) (Agilent Technologies Korea Ltd., Seoul, Republic of Korea) protected by a Phenomenex SecurityGuard C18 guard column was used. The mobile phase consisted of (A) 0.1% formic acid in water and (B) 0.1% formic acid in acetonitrile. […] The flow rate was 0.45 mL/min, the injection volume was 3 µL, and the column temperature was 40 °C. The ion source parameters for the mass spectrometer were set as follows: gas temperature 325 °C, gas flow 12 L/min, nebulizer pressure 35 psi, sheath gas temperature 350 °C, and sheath gas flow 10 L/min. Multiple Reaction Monitoring (MRM) transitions were used for quantification: KB-1517: m/z 402 → 72 (CE 10 V); KB-1518: m/z 402 → 72 (CE 5 V); Diclofenac (IS): m/z 296 → 215 (CE 30 V); […] Ranitidine: m/z 315 → 102 (CE 33 V); Itraconazole: m/z 705 → 395 (CE 40 V); […] Data acquisition and processing were performed using Agilent MassHunter Quantitative Analysis software (ver. B.05.00). Calibration curves were constructed using weighted linear regression. Noncompartmental analysis (NCA) was performed using PKSolver to determine pharmacokinetic parameters from the plasma concentration-time data. Parameters included: maximum plasma concentration (Cmax), time to reach Cmax (tmax), terminal elimination half-life (t1/2), area under the plasma concentration-time curve from time zero to the last measurable concentration (AUClast), area under the plasma concentration-time curve extrapolated to infinity (AUCinf), total body clearance (CL), and volume of distribution at steady state (Vss). […] Due to the anomalous profile of KB-1517, AUClast was used for its F calculation, and some parameters (t½, CL, Vss for IV; AUCinf for PO) could not be reliably determined (ND). […]

[1] = mouse, plasma, single IV dose 5 mg/kg, mean ± SD (n = 4)
[2] = mouse, plasma, single PO dose 10 mg/kg, mean ± SD (n = 4)

Row | SMILES | F (apparent oral bioavailability) (PO 10 mg/kg vs IV 5 mg/kg, calculated using AUClast) [%] | bioavailability (male, ICR, mouse, plasma, PO 10 mg/kg vs IV 5 mg/kg, calculated using AUClast, read-out: F (apparent oral bioavailability)) [%] | AUC(0-t) [1] [ng·h/mL] | AUC(0-t) [2] [ng·h/mL] | Cmax [2] [ng/mL] | Tmax [2] [h] | F (oral bioavailability) (PO 10 mg/kg vs IV 5 mg/kg, calculated from AUCinf) [%] | CL (single IV dose 5 mg/kg, mean ± SD (n = 4), 5 mg/kg) [L/h/kg] | clearance (male, ICR, mouse, plasma, iv, 5 mg/kg, single IV dose 5 mg/kg, mean ± SD (n = 4)) [mL/min/kg] | Vd (male, ICR, mouse, plasma, iv, 5 mg/kg, single IV dose 5 mg/kg, mean ± SD (n = 4), read-out: Vss) [L/kg] | bioavailability (male, ICR, mouse, plasma, PO 10 mg/kg vs IV 5 mg/kg, calculated from AUCinf, read-out: F (oral bioavailability)) [%] | AUC(0-inf) [1] [ng·h/mL] | AUC(0-inf) [2] [ng·h/mL] | half-life (mouse, single IV dose 5 mg/kg, plasma, mean ± SD (n = 4)) [min] | half-life (mouse, single PO dose 10 mg/kg, plasma, mean ± SD (n = 4)) [min]
1 | CN(C)CCn1c(=O)c2nc(-c3ccc(C(F)(F)F)cc3)oc2c2ccccc21 [KB-1517, 5-(2-(dimethylamino)ethyl)-2-(4-(trifluoromethyl)phenyl)oxazolo[4,5-c]quinolin-4(5H)-one] | 119.3 ± 20.1 | > 100 | 1830 ± 348 | 4370 ± 738 | 289 ± 34.1 | 5.6 ± 3.5 | – | – | – | – | – | – | – | – | –
2 | CN(C)CCOc1nc2ccccc2c2oc(-c3ccc(C(F)(F)F)cc3)nc12 [KB-1518, N,N-dimethyl-2-((2-(4-(trifluoromethyl)phenyl)oxazolo[4,5-c]quinolin-4-yl)oxy)ethan-1-amine] | – | – | 3460 ± 474 | 868 ± 267 | 157 ± 104 | 1.6 ± 0.8 | 13.6 ± 3.4 | 1.5 ± 0.2 | ~25 | ~4.6 | ~14 | 3460 ± 476 | 942 ± 234 | 156 ± 18 | 372 ± 114
